Experimental data taken from patent US20070142427A1, “Noncyclic 1,3-Dicarbonyl compounds as dual PPAR agonists with potent antihyperglycemic and antihyperlipidemic activity” (Shenzhen Chipscreen Biosciences Ltd., priority 2002, published 2007).

Assays:
db/db mice [1] = experiment: Blood glucose lowering in db/db mice in vivo; details: male db/db mice, once daily gavage for 9 days; measured at day 9 after 3 hours fasting after dosing, tail blood, Bayer Strips (FIG. 3)
Protocol: (§1) 7 week-old male db/db (C57BLKS/J-m+/+Lepr^db) mice (n=10) from Jackson Laboratories (Bar Harbor, Me.) were treated once daily with indicated doses of the compound by gavage feeding at each morning for 9 consecutive days. All animals were maintained under standardized conditions (12-hour light/dark cycle, 22° C.). At day 9 of the treatment, blood glucose level was measured after 3 hours fasting after dosing by taking tail blood using Bayer Strips.

db/db mice [2] = experiment: Blood triglyceride lowering in db/db mice in vivo; details: male db/db mice, once daily gavage for 9 days; measured at day 9 after 3 hours fasting after dosing, tail blood, Roche Strips (FIG. 4)
Protocol: as §1, with “triglyceride” for “glucose”, “Roche” for “Bayer”

`COC(=O)C(Cc1ccc(OCCOc2ccc3c(c2)CCCC3)cc1)C(=O)OC` [CS-01300012, dimethyl 4-[2-(5,6,7,8-tetrahydro-2-naphthoxy)ethoxy] benzylmalonate] was tested, and the blood glucose level (db/db mice [1]) was “effective in lowering blood glucose level” and the blood triglyceride level (db/db mice [2]) was “effective in lowering blood triglyceride level”.
